Assay results as given in ChEMBL document CHEMBL6103656, “Discovery of BT-114143, a Novel and Potent Phosphoric Acid-Containing Small-Molecule Plasminogen Activation Inhibitor for Hyperfibrinolysis” (J Med Chem, 2025).
The source made the active and inactive calls. No cut-off for these calls is given here.

Experiments:
Blood = experiment: Ratio of compound IC50 to TXA IC50 in anti-fibrinolytic activity in healthy human fresh blood by plasma clot lysis; format: functional
[1] = target: Tissue-type plasminogen activator (Homo sapiens) (UniProt P00750); experiment: Inhibition of recombinant human tissue plasminogen activator (rt-PA)-induced fibrinolysis in human fresh whole blood assessed as thrombus dissolution within 30 mins after reaching maximum amplitude (LY30) by thromboelastography analysis; format: functional, tissue-based
Sequence of Tissue-type plasminogen activator (Homo sapiens) (P00750 36-562 limits assumed): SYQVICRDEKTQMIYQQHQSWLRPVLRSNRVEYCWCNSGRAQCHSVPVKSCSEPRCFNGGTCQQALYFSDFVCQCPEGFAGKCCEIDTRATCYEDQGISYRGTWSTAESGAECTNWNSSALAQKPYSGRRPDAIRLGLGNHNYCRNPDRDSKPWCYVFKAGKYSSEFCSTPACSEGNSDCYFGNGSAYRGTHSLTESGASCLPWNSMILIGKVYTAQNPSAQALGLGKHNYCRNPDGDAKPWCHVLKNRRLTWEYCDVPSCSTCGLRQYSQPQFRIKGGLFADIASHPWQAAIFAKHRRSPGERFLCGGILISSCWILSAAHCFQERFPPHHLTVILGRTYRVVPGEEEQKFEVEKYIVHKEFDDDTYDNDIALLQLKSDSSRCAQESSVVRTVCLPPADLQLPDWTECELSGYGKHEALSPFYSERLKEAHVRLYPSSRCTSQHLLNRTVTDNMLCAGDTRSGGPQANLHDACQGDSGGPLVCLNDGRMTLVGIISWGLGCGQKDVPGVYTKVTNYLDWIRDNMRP

[2] = (§1) Inhibition of Plasminogen (unknown origin) binding to fibrin (unknown origin) interaction by surface plasmon resonance (SPR) analysis; design: species or system Homo sapiens
Homo sapiens = species: Homo sapiens; experiment: as §1
[3] = Half life in Sprague-Dawley rat at 1 mg/kg, iv measured upto 24 hrs by LC-MS/MS analysis; format: ADME, organism-based; details: in vivo
[4] = Half life in beagle dog at 1 mg/kg, iv measured upto 24 hrs by LC-MS/MS analysis; format: ADME, organism-based, Canis lupus familiaris; details: in vivo
[5] = AUC (0 to infinity) in Sprague-Dawley rat at 1 mg/kg, iv measured upto 24 hrs by LC-MS/MS analysis; format: ADME, organism-based; details: in vivo
[6] = AUC (0 to infinity) in beagle dog at 1 mg/kg, iv measured upto 24 hrs by LC-MS/MS analysis; format: ADME, organism-based, Canis lupus familiaris; details: in vivo
[7] = Volume of distribution at steady state in Sprague-Dawley rat at 1 mg/kg, iv measured upto 24 hrs by LC-MS/MS analysis; format: ADME, organism-based; details: in vivo, read-out: Vdss
[8] = Volume of distribution at steady state in beagle dog at 1 mg/kg, iv measured upto 24 hrs by LC-MS/MS analysis; format: ADME, organism-based, Canis lupus familiaris; details: in vivo, read-out: Vdss
[9] = Clearance in Sprague-Dawley rat at 1 mg/kg, iv measured upto 24 hrs by LC-MS/MS analysis; format: ADME, organism-based; details: in vivo
[10] = Clearance in beagle dog at 1 mg/kg, iv measured upto 24 hrs by LC-MS/MS analysis; format: ADME, organism-based, Canis lupus familiaris; details: in vivo
Rattus norvegicus [11] = experiment: Hemostatic effect in rt-PA enhanced Sprague-Dawley rat tail bleeding model assessed as reduction in tail bleeding time at 5 mg/kg infused into right jugular vein; format: functional, organism-based; details: route iv
Rattus norvegicus [12] = experiment: Hemostatic effect in rt-PA enhanced Sprague-Dawley rat tail bleeding model assessed as reduction in tail bleeding time at 40 mg/kg infused into right jugular vein; format: functional, organism-based; details: route iv
[13] = target: Tissue-type plasminogen activator (Rattus norvegicus) (UniProt P19637); experiment: Inhibition of recombinant tissue plasminogen activator (rt-PA)-induced fibrinolysis in Sprague-Dawley rat fresh whole blood assessed as thrombus dissolution within 30 mins after reaching maximum amplitude (LY30) at > 3 uM by thromboelastography analysis; format: functional, tissue-based
Sequence of Tissue-type plasminogen activator (Rattus norvegicus) (P19637 whole entry): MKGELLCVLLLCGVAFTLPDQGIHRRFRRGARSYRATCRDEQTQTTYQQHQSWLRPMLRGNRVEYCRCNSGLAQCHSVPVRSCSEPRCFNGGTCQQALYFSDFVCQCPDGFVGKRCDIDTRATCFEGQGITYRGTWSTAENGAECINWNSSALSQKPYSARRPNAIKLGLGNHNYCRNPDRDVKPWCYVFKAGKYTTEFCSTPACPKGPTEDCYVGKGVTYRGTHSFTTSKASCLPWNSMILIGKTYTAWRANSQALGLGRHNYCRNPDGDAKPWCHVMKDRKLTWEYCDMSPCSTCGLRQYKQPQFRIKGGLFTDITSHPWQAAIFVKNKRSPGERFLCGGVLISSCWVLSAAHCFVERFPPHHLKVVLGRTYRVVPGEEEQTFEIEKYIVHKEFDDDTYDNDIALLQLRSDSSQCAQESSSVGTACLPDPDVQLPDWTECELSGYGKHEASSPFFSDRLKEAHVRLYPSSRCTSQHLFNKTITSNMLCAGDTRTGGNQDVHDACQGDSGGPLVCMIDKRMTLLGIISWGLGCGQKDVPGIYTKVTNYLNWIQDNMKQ

Row | Structure (SMILES) | Ratio IC50 (Blood) | further results
1 | Cl.O=P(O)(O)c1ccc2c(n1)CC(Cc1ccccc1)NC2 (mixture of isomers) | 0.75 | –
2 | Cl.O=C(O)c1nc2c(s1)CCNC2 | >10 | –
3 | Cl.O=C(O)c1nc2c([nH]1)CCNC2 | >10 | –
4 | CCCC1Cc2nc(P(=O)(O)O)ccc2CN1.Cl (mixture of isomers) | 0.2 | –
5 | Cl.O=P(O)(CCc1ccccc1)c1ccc2c(n1)CCNC2 | 0.36 | –
6 | CC(C)(C)CC1Cc2nc(P(=O)(O)O)ccc2CN1.Cl (mixture of isomers) | 0.19 | –
7 | Cl.NC(=O)NC(=O)c1ccc2c(n1)CCNC2 | >10 | –
8 | CC(C)(C)C[C@H]1C[C@@H](c2cc(=O)[nH]o2)CCN1.Cl | 0.15 | –
9 | NC[C@H]1CC[C@H](C(=O)O)CC1 [TRANEXAMIC ACID] | – | IC90 [1]: 10.1 µM; IC50 [2]: 5.33 µM; IC90 (Homo sapiens): 78.7 µM; half-life [3]: 1.28 h; half-life [4]: 5.34 h; AUC(0-inf) [5]: 2820 ng·h/mL; AUC(0-inf) [6]: 6680 ng·h/mL; Vd [7]: 0.296 L/kg; Vd [8]: 0.587 L/kg; clearance [9]: 5.78 mL/min/kg; clearance [10]: 2.46 mL/min/kg; Activity (Rattus norvegicus [11]): Active; Activity (Rattus norvegicus [12]): Active; inhibition [13]: Active
10 | Cl.O=P(O)(O)c1ccc2c(n1)C(N1CCS(=O)(=O)CC1)CNC2 (mixture of isomers) | 0.25 | –
11 | Cl.O=P(O)(O)c1ccc2c(n1)C(N1CCOCC1)CNC2 (mixture of isomers) | 0.3 | –
12 | CC(C)(C)CCC1Cc2nc(P(=O)(O)O)ccc2CN1.Cl (mixture of isomers) | 0.1 | –
13 | CN(C)S(=O)(=O)NC(=O)c1ccc2c(n1)CCNC2.Cl | 0.99 | –
14 | Cl.O=P(O)(Cc1ccccc1)c1ccc2c(n1)CCNC2 | 1.29 | –
15 | NCCCCCC(=O)O | – | Activity (Rattus norvegicus [11]): inactive
16 | Cl.O=P(O)(O)c1ccc2c(n1)CC(CCc1ccccc1)NC2 (mixture of isomers) | 0.2 | –
17 | CC(C)C1Cc2nc(P(=O)(O)O)ccc2CN1.Cl (mixture of isomers) | 0.14 | –
18 | Cl.O=C(O)c1nc2c(s1)CNCC2 | 0.94 | –

Row | Structure (SMILES) | Ratio IC50 (Blood) | further results
19 | Cl.O=C(O)c1cc2c(cn1)CNCC2 | 4.33 | –
20 | Cl.NS(=O)(=O)c1ccc2c(n1)CCNC2 | 4.26 | –
21 | Cl.O=c1[nH]c(-c2ccc3c(n2)CCNC3)no1 | 0.86 | –
22 | Cl.O=P(O)(O)c1ccc2c(n1)C(N1CCSCC1)CNC2 (mixture of isomers) | 0.21 | –
23 | CS(=O)(=O)NC(=O)c1ccc2c(n1)CCNC2.Cl | 2.06 | –
24 | CC(C)CCC1Cc2nc(P(=O)(O)O)ccc2CN1.Cl (mixture of isomers) | 0.09 | –
25 | CC(C)CC1Cc2nc(P(=O)(O)O)ccc2CN1.Cl (mixture of isomers) | 0.08 | –
26 | Cl.O=P(O)(O)c1ccc2c(n1)C(N1CC[S+]([O-])CC1)CNC2 (mixture of isomers) | 0.17 | –
27 | Cl.O=S(=O)(O)c1ccc2c(n1)CCNC2 | 0.93 | –
28 | Cl.O=P(O)(c1ccccc1)c1ccc2c(n1)CCNC2 | 0.2 | –
29 | Cl.O=C(O)c1cc2c(s1)CNCC2 | 1.36 | –
30 | CCOP(=O)(O)c1ccc2c(n1)CCNC2.Cl | 0.29 | –
31 | CC(=O)NS(=O)(=O)c1ccc2c(n1)CCNC2.Cl | >10 | –
32 | Cl.O=C(O)c1ccc2c(c1)CCNC2 | 0.63 | –
33 | CCP(=O)(O)c1ccc2c(n1)CCNC2.Cl | 0.86 | –
34 | Cl.O=C(O)c1cnc2c(c1)CCNC2 | 2.16 | –
35 | Cl.O=C(O)c1ccc2c(n1)CCNC2 | 0.25 | –
36 | Cl.c1cc2c(nc1-c1nnn[nH]1)CCNC2 | 0.9 | –
